What was measured:
HepG2 cells = assay: MTT cell viability assay; type: cell-based, human
Experimental: (§1) Cell viability was determined by the MTT [3-(4,5-dimethylthiazol-2-yl)-2,5-diphenyltetrazolium bromide)] assay. Briefly, cells were seeded on 96-well plates and allowed to grow to about 70–80% confluence. Prior to the experiment, culture media was replaced with KRB-HCO3^- containing desired concentrations of MPP^+ or 4'I-MPP^+ and incubated for 16 h at 37 °C. After the incubation, 10 μL of 5 mg/mL MTT solution was added to each well and incubated for 2 h at 37 °C. The resulting formazan was solubilized by the addition of 210 μL detergent solution [50% DMF/H2O (v/v), 20% SDS (w/v)] followed by incubation at 37 °C for 12 h. The cell viabilities were determined by quantifying solubilized formazan by measuring the difference in the absorbance at 570 nm and 650 nm. Results were expressed as % viability of MPP^+ or 4'I-MPP^+ treated cells with respect to control cells, which were treated under the same conditions except in the absence of the MPP^+ or 4'I-MPP^+.

[1] = Relative HPLC elution times and hydrophobicities; type: physicochemical
MN9D cells [2] = assay: Chromatin condensation test for apoptosis (DAPI); type: cell-based, mouse; details: 250 μM, 12 h
Experimental: MN9D cells grown in glass-bottomed plates were treated with 250 μM MPP^+ or 4'I- MPP^+ for 12 h and then with 300 nM DAPI in KRB-HEPES for 15 min in the dark at 37 °C [24]. Then cells were rinsed and PBS was added to cover the cell layer. Increase in nuclear DAPI fluorescence (Ex/Em at 358/461 nm) due to chromatin condensation was observed using a Nikon ECLIPSE Ti-S inverted fluorescence microscope. The controls were treated similarly except that MPP^+ or 4'I-MPP^+ was omitted from the initial incubation medium.

MN9D cells [3] = assay: MTT cell viability assay; type: cell-based; details: Mus musculus, 16 h incubation
Experimental: as §1

## C[n+]1ccc(-c2ccc(I)cc2)cc1 [4'I-MPP^+, 1-methyl-4-(4'-iodophenyl)pyridinium]
HepG2 cells; MPP+ at 0–1000 μM, 4'I-MPP+ at 0–200 μM, 16 h
  HepG2 cell toxicity: resistant
HepG2 cells; rough estimates, data not shown
  concentration above which toxic to HepG2 cells: above 250 μM
[1]; Buffer:CH3CN 70:30
  relative elution time (hydrophobicity): 11.76
[1]; Buffer:CH3CN:MeOH 60:30:10
  relative elution time (hydrophobicity): 8.88
[1]; Buffer:CH3CN:MeOH 65:25:10
  relative elution time (hydrophobicity): 12.56
MN9D cells [2]
  apoptotic cell death (chromatin condensation): cause apoptotic MN9D cell death
MN9D cells [3]
  IC50: ~40 µM
